# Experimental data taken from paper PMC6877910, “Astrocyte-Targeted Transporter-Utilizing Derivatives of Ferulic Acid Can Have Multifunctional Effects Ameliorating Inflammation and Oxidative Stress in the Brain” (Oxidative Medicine and Cellular Longevity, 2019).
# Like-named read-outs stand apart in the source and are kept apart here.
# Assays:
# [1] = test system: peroxidase activity of cyclooxygenases (COX); assay: Peroxidase activity of cyclooxygenases in cell lysates (fluorometric kit); assay type: biochemical; settings: 100 μM; 30 min; assay does not differentiate COX from LOX
# Procedure: A coupled oxidation-reduction fluorometric assay was used to assess the inhibitory effect of compounds (100 μM) together with positive controls on the peroxidase activity of cyclooxygenases (COX) (ab204699 Cyclooxygenase Activity Assay Kit, Abcam, Cambridge, UK). The method has been done and validated according to the manufacturer's protocol. Briefly, studied compounds (100 μM) and the reaction mixture were incubated with the cell lysates at room temperature and the reaction was initiated by adding arachidonic acid/NaOH solution. The fluorescence was read in a kinetic mode after every 15 seconds for 30 minutes by the EnVision plate reader (EnVision, PerkinElmer, Inc., Waltham, MA, USA) at λex 535 nm and λem 587 nm.
# [2] = 5 h incubation in vitro; previous study; cited from earlier work
# [3] = Intracellular unbound drug concentration ratio (Kp,uu) in astrocytes; assay type: in vitro ADME; settings: C57BL/6J, mouse, read-out: Kp,uu (unbound intracellular : extracellular ratio)
# Procedure: The unbound fraction of FA and its derivatives 1-2 was determined at 10 μM in cell homogenate by using a Rapid Equilibrium Dialysis (RED) device (Thermo Fisher Scientific, Inc., Waltham, MA, USA). Briefly, the cell homogenate was prepared from astrocyte cell suspension (10 × 10^6 cells/mL) in HBSS with a SoniPerp 150 Plus disintegrator (MSE Ltd., London, UK) for 2 s × 3. 100 μL of cell homogenate spiked with the studied compound was added to the reaction chamber, and 350 μL of HBSS buffer was added to the buffer chamber of the RED plate. The dialysis plate was incubated at 37°C for 4 h with shaking. […]
# The drug concentration ratio in astrocytes (Kp) was determined at 0.01-1.0 μM concentrations by comparing the cellular uptake from the cell lysates (0.1 M NaOH) to the concentration detected from the surrounding buffer (HBSS) collected before cell lysing as described by Mateus et al.: (3) Kp=Acell/Vcell/Cmedium, where Acell is the amount of compound in the cell lysate (nmol), Vcell is the astrocyte cell volume (0.05810^−15 L/cell) for 10 × 10^4 cells/well, and Cmedium is the compound concentration in the surrounding buffer. The unbound drug concentration ratio (Kp,uu) was then calculated by multiplying the drug concentration ratio (Kp) by unbound drug fraction (fu,cell) as described by Mateus et al.: (4) Kp,uu=Kp×fu,cell.
# NF-κB = assay: Total amount of NF-κB p65 (ELISA) in cells; assay type: cell-based, mouse; settings: 100 μM; 24-96 h incubation
# Procedure: Enzyme-Linked Immunosorbent Assay (ELISA) kits were used (mTOR SimpleStep ELISA Kit and NFκB p65 Total SimpeStep ELISA Kit, Abcam, Cambridge, UK) to quantify mammalian (or mechanistic) target of rapamycin (mTOR) and transcription factor NF-κB amounts, respectively. […] The control wells were treated with the solvent only (0.5% DMSO). Cells were solubilized using the provided extraction buffer with the kit, incubated on ice for 20 minutes and centrifuged at 18 000 × g for 20 min at 4°C. The supernatants were stored at -80°C till the day of the analysis. Standards and samples were then analyzed following the manufacturer's protocol (ELISA sandwich method) and by reading the absorbance with the EnVision plate reader (EnVision, PerkinElmer, Inc., Waltham, MA, USA) at 450 nm. The results were analyzed as pmol of formed mTOR or NF-κB per mL.
# [4] = test system: LPS-induced lipid peroxidation in primary astrocytes; assay: LPS-induced lipid peroxidation (malondialdehyde formation) in primary astrocytes; assay type: cell-based, mouse; settings: 50 μM compound with 0.1 μg/mL LPS, 24 h
# Procedure: Primary astrocytes were seeded at the density of 2 × 10^5 cells/well onto collagen-coated 6-well plates. The cells were used for the experiments 2 days after seeding, and first, they were treated with 0.1 μg/mL lipopolysaccharide (LPS) in prewarmed HBSS buffer (250 μL) at 37°C for 24 h. The control cells were treated with prewarmed HBSS buffer only. The ability of compound to inhibit the oxidative stress was evaluated by adding FA (50 μM) or its derivatives 1-3 in prewarmed HBSS buffer (250 μL) together with LPS and incubating the cells at 37°C for 24 h. Tocopherol (vitamin E) was used as a positive control. […] The mixtures were then centrifuged at 10 000 × g for 10 min, and 50 μL of the supernatant was analyzed on a 96-well plate, each experiment as three technical replicates from three biological replicates. The fluorescence was read by the EnVision plate reader (EnVision, PerkinElmer, Inc., Waltham, MA, USA) at λex 532 nm and λem 553 nm. The amount of produced malondialdehyde (MDA) in each experiment was quantified from the standard curve; various amounts (1-800 μM) of MDA and thiobarbituric acid in water were incubated in a thermoshaker at 95°C for 1 h and analyzed simultaneously as duplicates with each studied batch. […] The results were analyzed as μmol of formed MDA per mg protein.
# [5] = Bioconversion in mouse brain S9 subcellular fraction; assay type: in vitro ADME
# [6] = cited from earlier work
structure (smiles),measurement,setting,value
"COc1cc(/C=C/C(=O)O)ccc1O [FA, trans-4-hydroxy-3-methoxycinnamic acid, reference compound]",Inhibition of peroxidase activity of COX enzymes,[1],inhibited the cellular peroxidase activity of COX enzymes
COc1cc(C=CC(=O)NCc2cccc(CC(N)C(=O)O)c2)ccc1O (centres unmarked) [FA-derivative 1],FA released / stability in mouse brain S9 subcellular fraction,[2],remained intact
same,Kp uu,[3]; lower concentrations (<0.1 μM),0.25 to 2.14
COc1cc(C=CC(=O)Nc2cccc(CC(N)C(=O)O)c2)ccc1O (centres unmarked) [FA-derivative 2],Effect on total NF-κB levels,NF-κB,did not exert any effects
same,MDA levels lower than in the control incubation,[4],approximately 12%
same,Kp uu,[3]; throughout the studied concentrations (0.01-1.0 μM),0.83 to 1.74
COc1cc(C=CC(=O)Oc2cccc(CC(N)C(=O)O)c2)ccc1O (centres unmarked) [FA-derivative 3],Bioconversion in the presence of donepezil,[5],no bioconversion at all was observed
same,half-life,[5],~3.58 h
same,Bioconversion in human plasma,[6]; in vitro human data,rather insignificant
same,"Human hepatic intrinsic clearance, times slower than in mouse",[6]; in vitro human data,10 times
same,"Stability in human plasma and liver S9 subcellular fraction, times more stable (than in mouse)",[6]; previous study,10 times
